# Assay results: patent US10111434B2, “Binary fungicidal mixtures” (BAYER CROPSCIENCE AG, priority 2012, dated 2018)
# How the values were obtained:
# Phakopsora pachyrhizi = assay: Phakopsora test (soybeans)/preventive; assay type: in vivo; conditions: preventive spray, evaluated 7 days after inoculation
# Method: Phakopsora Test (Soybeans)/Preventive
# (§1) To produce a suitable preparation of active compound, 1 part by weight of active compound is mixed with the stated amounts of solvent and emulsifier, and the concentrate is diluted with water to the desired concentration.
# (§2) To test for preventive activity, young plants are sprayed with the preparation of active compound at the stated rate of application. After the spray coating has dried on, the plants are inoculated with an aqueous spore suspension of the causal agent of soybean rust (Phakopsora pachyrhizi) and stay for 24 h without light in an incubation cabinet at approximately 24° C. and a relative atmospheric humidity of 95%.
# The plants remain in the incubation cabinet at approximately 24° C. and a relative atmospheric humidity of approximately 80% and a day/night interval of 12 h.
# The test is evaluated 7 days after the inoculation. 0% means an efficacy which corresponds to that of the untreated control, while an efficacy of 100% means that no disease is observed.
# Alternaria solani = assay: Alternaria test (tomatoes)/preventive; assay type: in vivo; conditions: preventive spray, evaluated 3 days after inoculation
# Method: Alternaria Test (Tomatoes)/Preventive
# as §1
# as §2, with “Alternaria solani. The plants are then placed” for “the causal agent of soybean rust (Phakopsora pachyrhizi) and stay for 24 h without light”, “20°” for “24°”, “100%.” for “95%.”
# The test is evaluated 3 days after the inoculation. 0% means an efficacy which corresponds to that of the untreated control while an efficacy of 100% means that no disease is observed.
Compound,Efficacy in % found (Phakopsora pachyrhizi; 25 ppm a.i.),Efficacy in % found (Alternaria solani; 25 ppm a.i.),Efficacy in % found (Phakopsora pachyrhizi; 2.5 ppm a.i.),Efficacy in % found (Alternaria solani; 2.5 ppm a.i.)
"Cn1c(=O)c2sc3c(=O)n(C)c(=O)c3sc2c1=O [2.1, 2,6-dimethyl-1H,5H-[1,4]dithiino[2,3-c:5,6-c′]dipyrrole-1,3,5,7(2H,6H)-tetrone]",8%,39%,–,–
"CC1CC(C)(C)c2cccc(NC(=O)c3cn(C)nc3C(F)F)c21 (stereo not drawn) [(I-1), 3-(difluoromethyl)-1-methyl-N-(1,1,3-trimethyl-2,3-dihydro-1H-inden-4-yl)-1H-pyrazole-4-carboxamide]",–,–,68%,36%
propineb [2.2],0%,33%,–,–
